# In patent US20100251434A1, “METHOD FOR GROWING SUGARCANE” (SYNGENTA CROP PROTECTION, INC., priority 2007, published 2010):
# Legend:
# Details in all cases: for Culm Diameter / Leaf Width / Plant Height / Tillers: 42 days after planting
# [1] = tested on: sugar cane Variety RB 86-7515; experiment: Greenhouse pot test, effect of formulated fipronil on vigour; format: in vivo
# Protocol: Greenhouse test with sugarcane buds growing in pots were conducted to study the effect of fipronil equivalent to an application rate of 200 g. ha^−1 on “vigour”, evaluating tillers, plant height, leaf width and culm diameter on sugar cane Variety RB 86-7515.
# 1) carretel with one bud treated with fipronil (200 g. ha^−1) 2) carretel with one bud treated with fipronil (200 g. ha^−1)+15% v/v of polymer 3) stalk with 3 buds untreated 4) carretel with one bud untreated 5) carretel with one bud untreated+15% v/v of polymer 6) stalk with 3 buds treated with fipronil (200 g. ha-1).
# Twenty 1 L pots were filled with 16 L of clay soil, 1.6 L of sand and 8 g of nitrogen, 28 g to of phosphorus (P2O5) and 16 g of potassium (K2O). Six carretels of 4 cm length with one bud were planted in each pot (treatments 1, 2, 4 and 5). Two stalks with three buds were planted in each control pot (treatments 3 and 6) to simulate conventional planting. A layer of 3 cm of soil was used to cover the carretels. The carretels of treatments 1 and 2 were treated with 200 g ai.ha^−1 of fipronil, by dipping the carretels in the slurry for 3 min, based on the uptake capacity of carretels. The stalks were treated simulating a furrow application at 100 L.ha^−1 of slurry. Experimental design adopted was randomized complete block with four replications. The pots were maintained with adequate moisture during the test. Evaluations of: plant height, leaf width, culm diameter and number of tillers were done at 20, 30 and 42 days after planting.
# [2] = tested on: sugar cane Variety RB 86-7515; experiment: Greenhouse pot test, effect of formulated abamectin on vigour; format: in vivo
# Protocol: Greenhouse test with sugarcane buds growing in pots were conducted to study the effect of formulated abamectin regarding “vigour”, tillers, plant height, leaf width and culm diameter on sugar cane Variety RB 86-7515.
# 1) carretel with one bud treated with abamectin 2) carretel with one bud treated with abamectin+15% v/v of polymer 3) stalk with 3 buds untreated 4) carretel with one bud untreated 5) carretel with one bud untreated+15% v/v of polymer 6) stalk with 3 buds treated with abamectin.
# Twenty 1 L pots were filled with 16 L of clay soil, 1.6 L of sand and 8 g of nitrogen, 28 g of phosphorus (P2O5) and 16 g of potassium (K2O). Six carretels of 4 cm length with only one bud were planted in each pot (treatments 1, 2, 4 and 5). Two stalks with three buds were planted in each control pot (treatments 3 and 6) to simulate conventional planting. A layer of 3 cm of soil was used to cover the carretels. The carretels of treatments 1, 2 were treated with 200 ml/ha of abamectin, by dipping the carretels in the slurry for 3 min, based on the uptake capacity of carretels. The stalks were treated simulating a furrow application at 100 L.ha^−1 of slurry. Experimental design adopted was randomized complete block with four replications. The pots were maintained with adequate moisture during the test. Evaluations of: plant height, leaf width, culm diameter and number of tillers were done at 20, 30 and 42 days after planting.
# [3] = tested on: sugarcane Variety RB 86-7515; experiment: Greenhouse pot test, effect of formulated thiamethoxam on vigour; format: in vivo, sugar cane
# Protocol: This trial was conducted on Variety RB 86-7515.
# [4] = tested on: sugar cane Variety RB 86-7515; experiment: Greenhouse pot test, effect of formulated clothianidin on vigour; format: in vivo
# Protocol: Greenhouse test with sugarcane buds growing in pots were conducted to study the effect of clothianidin equivalent to an application rate of 200 g ai. ha^−1 on “vigour”, evaluating tillers, plant height, leaf width and culm diameter. This trial was conducted on sugar cane Variety RB 86-7515.
# 1) carretel with one bud treated with clothianidin (200 g ai. ha^−1) 2) carretel with one bud treated with clothianidin (200 g ai. ha^−1)+15% v/v of polymer 3) stalk with 3 buds untreated 4) carretel with one bud untreated+15% v/v of polymer 5) carretel with one bud untreated 6) stalk with 3 buds treated with clothianidin (200 g ai. ha^−1).
# Twenty 1 L pots were filled with 16 L of clay soil, 1.6 L of sand and 8 g of nitrogen, 28 g of phosphorus (P2O5) and 16 g of potassium (K2O). Six carretels of 4 cm length with one bud were planted in each pot (treatments 1, 2, 4 and 5). Two stalks with three buds were planted in each control pot (treatments 3 and 6) to simulate conventional planting. A layer of 3 cm of soil was used to cover the carretels. The carretels of treatments 1 and 2 were treated with 200 g ai.ha^−1 of clothianidin, by dipping the carretels in a slurry for 3 min. The stalks were treated simulating a furrow application at 100 L.ha^−1 of slurry. The pots were maintained with adequate moisture during the test. Evaluations of: plant height, leaf width, culm diameter and number of tillers were performed at 20, 30 and 42 days after planting.
# [5] = tested on: sugar cane Variety RB 86 7515; experiment: Greenhouse pot test, effect of formulated imidacloprid on vigour; format: in vivo
# Excerpt: 1) carretel with one bud treated with Imidacloprid (1200 g. ha^−1) 2) carretel with one bud treated with Imidacloprid (1200 g. ha^−1)+15% v/v of polymer 3) stalk with 3 buds untreated 4) carretel with one bud untreated 5) carretel with one bud untreated+15% v/v of polymer 6) stalk with 3 buds treated with Imidacloprid (1200 g. ha^−1).
# Twenty 1 L pots were filled with 16 L of clay soil, 1.6 L of sand and 8 g of nitrogen, 28 g of phosphorus (P2O5) and 16 g of potassium (K2O). Six carretels of 4 cm length with one bud were planted in each pot (treatments 1, 2, 4 and 5). Two stalks with three buds were planted in each control pot (treatments 3 and 6) to simulate conventional planting. A layer of 3 cm of soil was used to cover the carretels. The carretels of treatments 1 and 2 were treated with 1200 g ai.ha^−1 of imidacloprid, by dipping the carretels in the slurry for 3 min, based on the uptake capacity of carretels. The stalks were treated simulating a furrow application at 100 L.ha^−1 of slurry. Experimental design adopted was randomized complete block with four replications. The pots were maintained with adequate moisture during the test. Evaluations of: plant height, leaf width, culm diameter and number of tillers were done at 20, 30 and 42 days after planting.
# [6] = carretel with one bud, dipped in slurry, 200 g ai/ha (0.0 for Untreated + polymer)
# [7] = stalk with 3 buds, simulated furrow application, 200 g ai/ha
# [8] = carretel with one bud, dipped in slurry, 100 g ai/ha (0.0 for Untreated + Polymer)
# [9] = stalk with 3 buds, simulated furrow application, 100 g ai/ha
# [10] = carretel with one bud, dipped in slurry, 420 g ai/ha (0.0 for Untreated + Polymer)
# [11] = stalk with 3 buds, simulated furrow application, 420 g ai/ha
# [12] = carretel with one bud, dipped in slurry, 1200 g ai/ha (0.0 for Untreated + Polymer)
# [13] = stalk with 3 buds, simulated furrow application, 1200 g ai/ha
compound,measurement,setting,value
"N#Cc1nn(-c2c(Cl)cc(C(F)(F)F)cc2Cl)c(N)c1[S+]([O-])C(F)(F)F (stereo not drawn) [Fipronil, fipronil]",Culm Diameter,[1]; [6],8.69 mm
same,Leaf Width,[1]; [6],14.16 mm
same,Plant Height,[1]; [6],20.62 cm
same,Tillers,[1]; [6],17.25 number
same,height of the resultant plants in comparison with the control,[1]; result in words,decreased the height of the resultant plants
same,number of tillers in comparison with the control,[1]; result in words,increased the number of tillers
same,Culm Diameter,[1]; [7],10.75 mm
same,Leaf Width,[1]; [7],18.91 mm
same,Plant Height,[1]; [7],22.12 cm
same,Tillers,[1]; [7],16.5 number
abamectin,Culm Diameter,[2]; [8],7.67 mm
same,Leaf Width,[2]; [8],14.58 mm
same,Plant Height,[2]; [8],22.22 cm
same,Tillers,[2]; [8],14 number
same,number of tillers in comparison with the control,[2]; result in words,increase in the number of tillers
same,plant height in comparison with the control,[2]; result in words,decrease in plant height
same,Culm Diameter,[2]; [9],12.25 mm
same,Leaf Width,[2]; [9],20.33 mm
same,Plant Height,[2]; [9],22.54 cm
same,Tillers,[2]; [9],19.5 number
"CN1COCN(Cc2cnc(Cl)s2)/C1=N\[N+](=O)[O-] [Thiamethoxam, thiamethoxam]",Culm Diameter,[3]; [10],7.97 mm
same,Leaf Width,[3]; [10],14.07 mm
same,Plant Height,[3]; [10],23.67 cm
same,Tillers,[3]; [10],15.5 number
same,number of tillers in comparison with the corresponding controls,"[3]; result in words, carretels",increased number of tillers
same,plant height in comparison with the corresponding controls,"[3]; result in words, carretels",reduced plant height
same,"increase in ""quality"" compared with the other treatments","[3]; result in words, not apparent from the listed parameters",increase in “quality” greater than the other treatments
same,Culm Diameter,[3]; [11],10.17 mm
same,Leaf Width,[3]; [11],19.5 mm
same,Plant Height,[3]; [11],26.52 cm
same,Tillers,[3]; [11],14.75 number
"CN/C(=N\[N+](=O)[O-])NCc1cnc(Cl)s1 [Clothianidin, clothianidin]",Culm Diameter,[4]; [6],8.75 mm
same,Leaf Width,[4]; [6],17.17 mm
same,Plant Height,[4]; [6],25.02 cm
same,Tillers,[4]; [6],14.5 number
same,"number of tillers in comparison with the corresponding control (untreated, one-bud)","[4]; result in words, carretels",increased number of tillers
same,"plant height in comparison with the corresponding control (untreated, one-bud)","[4]; result in words, carretels",slight reduction in the plant height
same,Culm Diameter,[4]; [7],11.25 mm
same,Leaf Width,[4]; [7],21.5 mm
same,Plant Height,[4]; [7],22.73 cm
same,Tillers,[4]; [7],17.0 number
O=[N+]([O-])NC1=NCCN1Cc1ccc(Cl)nc1 [Imidacloprid],Culm Diameter,[5]; [12],8.75 mm
same,Leaf Width,[5]; [12],15.91 mm
same,Plant Height,[5]; [12],24.0 cm
same,Tillers,[5]; [12],15.25 number
same,effect on vigour compared with the other active ingredients,[5]; result in words,less pronounced than with the other active ingredients
same,number of tillers in comparison with the control,[5]; result in words,increase in the number of tillers
same,Culm Diameter,[5]; [13],9.49 mm
same,Leaf Width,[5]; [13],20.16 mm
same,Plant Height,[5]; [13],23.49 cm
same,Tillers,[5]; [13],12.0 number
